Data from the NIST ThermoML archive (doi:10.1016/j.jct.2010.03.021).
Several values for one entry are separate records, joined by “and”; a condition that tells them apart may be missing. Identical values can stand only once.

Key:
[1] = molar enthalpy of vaporization or sublimation; conditions: Crystal
[2] = Crystal, Calculated from knudsen effusion weight loss

O=[N+]([O-])c1ccccc1-n1cccc1 [1-(2-nitrophenyl)pyrrole]
[1], Clausius-Clapeyron Equation
Conditions | molar enthalpy [kcal/mol]
298.15 K | 24.21
316.16 K | 24

[2]
Conditions | vapor or sublimation pressure
306.11 K | 0.000106 kPa and 0.000108 kPa and 0.000109 kPa
308.2 K | 0.000141 kPa and 0.000138 kPa and 0.000139 kPa
310.18 K | 0.000181 kPa and 0.000173 kPa and 0.000174 kPa
312.12 K | 0.000226 kPa and 0.000227 kPa and 0.000228 kPa
314.19 K | 0.000291 kPa and 0.000284 kPa and 0.00029 kPa
316.18 K | 0.000368 kPa and 0.000355 kPa and 0.000358 kPa
318.11 K | 0.000464 kPa and 0.000466 kPa
320.18 K | 0.0006 kPa and 0.000587 kPa and 0.000594 kPa
322.18 K | 0.000764 kPa and 0.000733 kPa and 0.00074 kPa
324.12 K | 0.000955 kPa and 0.000965 kPa and 0.000963 kPa
326.2 K | 0.001224 kPa and 0.001209 kPa and 0.001238 kPa

O=[N+]([O-])c1ccc(-n2cccc2)cc1 [1-(4-nitrophenyl)pyrrole]
[1]
Conditions | molar enthalpy [kcal/mol]
298.15 K, Ebulliometric method (Recirculating still) | 26.86
355.13 K, Clausius-Clapeyron Equation | 26.2

[2]
Conditions | vapor or sublimation pressure
344.09 K | 9.59e-05 kPa and 9.52e-05 kPa and 9.41e-05 kPa
346.13 K | 0.000118 kPa and 0.000117 kPa
348.17 K | 0.000145 kPa and 0.000144 kPa
350.09 K | 0.000179 kPa and 0.000182 kPa and 0.000181 kPa
352.13 K | 0.000219 kPa and 0.00022 kPa and 0.000227 kPa
354.18 K | 0.00027 kPa and 0.000272 kPa and 0.000284 kPa
356.13 K | 0.000344 kPa and 0.000343 kPa and 0.00034 kPa
358.2 K | 0.00043 kPa and 0.000417 kPa and 0.000427 kPa
360.16 K | 0.000505 kPa and 0.000525 kPa
362.07 K | 0.000642 kPa and 0.000638 kPa and 0.000641 kPa
364.09 K | 0.000766 kPa and 0.000762 kPa and 0.000783 kPa
366.16 K | 0.000934 kPa and 0.000933 kPa
